Earlier results on one substance are cited in patent publication US5093322A, “Tick-derived amblyommin and method of antithrombin therapy” (Hoechst Aktiengesellschaft, priority 1988, dated 1992).

The conditions of series [1]: in vivo.

In the case of hirudin, the “thrombin inhibition, specificity” value with thrombin is recorded as “highly specific thrombin inhibitor”. Further, the half-life entry in series [1] is “relatively short half-life”.
